Laboratory results published in US11286268B1, “EIF4E-inhibiting compounds and methods” (EFFECTOR THERAPEUTICS, INC., priority 2019, dated 2022).
Where two headings read alike, the source gives them in different places.

Biological target: recombinant eIF4E (Homo sapiens (Human), UniProt P06730)
Assay: Fluorescence polarization competition assay for eIF4E binding potency
Method in brief: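 Protein and fluorescent cap-analog probe (EDA-m7GDP-ATTO-550) were mixed first for 5 min, after which serially diluted compound was added to final 75 nM eIF4E, 20 nM probe, 1% DMSO. Reactions equilibrated 30 min at room temperature before polarization was measured.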

[1] = inhibition of eIF4E/EDA-m7GDP-ATTO-550 binding, calculated IC50 values, Table 4B, read-out: IC50
[2] = fluorescence polarization competition, 75 nM recombinant eIF4E, 20 nM EDA-m7GDP-ATTO-550, IC50 class, read-out: elF4E FP
[3] = inhibition of eIF4E/EDA-m7GDP-ATTO-550 binding by 50%, Table 4B calculated values, read-out: IC50

Chain of recombinant eIF4E (P06730 whole entry): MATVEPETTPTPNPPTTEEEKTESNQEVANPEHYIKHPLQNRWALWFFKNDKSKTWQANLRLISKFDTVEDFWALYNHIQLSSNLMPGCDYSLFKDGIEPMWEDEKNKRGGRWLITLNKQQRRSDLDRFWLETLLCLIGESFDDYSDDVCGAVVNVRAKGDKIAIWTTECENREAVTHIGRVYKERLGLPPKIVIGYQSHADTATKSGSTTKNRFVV

SMILES: Cc1nc2cnc(N3CCN(C4CC4)C(C(F)(F)F)C3)c(C#N)c2c(=O)n1CCOc1ccc(Cl)cc1-c1ccnc2c(C(=O)O)csc12 (stereo not drawn) [compound 1438]
- IC50 [1]: 40.8 nM

SMILES: Cc1nc2cnc(N(C)C3CCN(CC(F)F)CC3)c(C#N)c2c(=O)n1CC#Cc1ccc(Cl)cc1-c1ccnc2c(C(=O)NS(=O)(=O)c3ccccn3)csc12 [compound 1566]
- IC50 [1]: 4.39 nM

SMILES: Cc1nc2cc(C(F)(F)F)c(CN3CCN(C)CC3)c(C#N)c2c(=O)n1CC#Cc1ccc(Cl)cc1-c1ccnc2c(C(=O)O)csc12 [compound 615]
- IC50 [2]: < 50 nM
- IC50 [3]: 16.3 nM

SMILES: Cc1cc(-c2cc(Cl)ccc2OCCn2c(C)nc3cnc(C#N)cc3c2=O)c2scc(C(=O)O)c2n1 [compound 596]
- IC50 [2]: < 50 nM
- IC50 [3]: 37.7 nM

SMILES: Cc1cc(-c2cc(Cl)ccc2OCCn2c(C)nc3cc(C(F)(F)F)c(-c4cncc(F)c4)c(C#N)c3c2=O)c2scc(C(=O)O)c2n1 [compound 342]
- IC50 [2]: < 50 nM
- IC50 [3]: 47.4 nM

SMILES: Cc1cc(-c2cc(Cl)ccc2OCCn2c(C)nc3cc(C(F)(F)F)c(-c4ccc(F)cn4)c(C#N)c3c2=O)c2scc(C(=O)O)c2n1 [compound 1381]
- IC50 [1]: 7.96 nM

SMILES: Cc1nc2cnc(N(C)C3CCN(CC(F)(F)C(F)F)CC3)c(C#N)c2c(=O)n1CC#Cc1ccc(Cl)cc1-c1ccnc2c(C(=O)NS(=O)(=O)c3cccnc3)csc12 [compound 1707]
- IC50 [1]: 15.7 nM

SMILES: Cc1nc2cnc(NC3CCCC3)cc2c(=O)n1CCOc1ccc(Cl)cc1-c1cccc(C(=O)O)c1 [compound 2005]
- IC50 [1]: 364 nM

SMILES: Cc1nc2cnc(C#CCN(C)CC(F)(F)F)c(C#N)c2c(=O)n1CCOc1ccc(Cl)cc1-c1ccnc2c(C(=O)O)csc12 [compound 1327]
- IC50 [1]: 19.3 nM

SMILES: Cc1nc2ccc(S(=O)(=O)c3ccccn3)c(C#N)c2c(=O)n1CCOc1ccc(Cl)cc1-c1ccnc2c(C(=O)O)csc12 [compound 297]
- IC50 [2]: < 50 nM
- IC50 [3]: 36.3 nM

SMILES: N#Cc1cc(C(F)(F)F)cc2c(Cl)c(Cl)n(CCOc3ccc(Cl)cc3-c3ccnc4c(C(=O)O)csc34)c(=O)c12 [compound 46]
- IC50 [2]: 50 to 1000 nM
- IC50 [3]: 67.2 nM

SMILES: Cc1nc2cnc(C3CC3)c(C#N)c2c(=O)n1CCOc1ccc(Cl)cc1-c1ccc(Cl)c2c(C(=O)O)csc12 [compound 773]
- IC50 [2]: < 50 nM
- IC50 [3]: 10.2 nM

SMILES: COC(=O)c1sc2cc(-c3cc(Cl)ccc3OCCn3c(C)nc4cc(C(F)(F)F)cc(C#N)c4c3=O)cnc2c1O [compound 664]
- IC50 [2]: 50 to 1000 nM
- IC50 [3]: 153 nM

SMILES: Cc1nc2cnc(N(C)[C@@H]3CC[C@H](N(C)CC(F)F)C3)c(C#N)c2c(=O)n1CC#Cc1ccc(Cl)cc1-c1ccnc2c(C(=O)O)csc12 [compound 1897]
- IC50 [1]: 13.1 nM

SMILES: Cc1cc(-c2cc(Cl)ccc2OCCn2c(C)nc3c(F)cc(CCN(C)C)c(C#N)c3c2=O)c2scc(C(=O)O)c2n1 [compound 608]
- IC50 [2]: < 50 nM
- IC50 [3]: 18.6 nM

SMILES: N#Cc1cc(C(F)(F)F)cc2nc(C#N)n(CCOc3ccc(Cl)cc3-c3cccc(C(=O)O)c3)c(=O)c12 [compound 185]
- IC50 [2]: 50 to 1000 nM
- IC50 [3]: 94.9 nM

SMILES: Cc1ccc(-c2cc(Cl)ccc2OCCn2c(C)nc3c(C#N)nc(-c4cccnc4)c(C)c3c2=O)c2scc(C(=O)O)c12 [compound 729]
- IC50 [2]: 50 to 1000 nM
- IC50 [3]: 92.5 nM

SMILES: Cc1nc2cnc(N(C)C3CCN(CC(=O)C(C)C)CC3)c(C#N)c2c(=O)n1CCOc1ccc(Cl)cc1-c1ccnc2c(C(=O)O)csc12 [compound 1127]
- IC50 [2]: < 50 nM
- IC50 [3]: 12.9 nM

SMILES: Cc1cc(-c2cc(Cl)ccc2OCCn2c(C)nc3cc(F)c(-c4cnc(C)s4)c(C#N)c3c2=O)c2scc(C(=O)O)c2n1 [compound 921]
- IC50 [2]: 50 to 1000 nM
- IC50 [3]: 69.6 nM

SMILES: Cc1cc(-c2cc(Cl)ccc2OCCn2c(C)nc3cnc(Cl)c(C#N)c3c2=O)c2scc(C(=O)O)c2n1 [compound 792]
- IC50 [2]: < 50 nM
- IC50 [3]: 2.44 nM

SMILES: Cc1cc(-c2cc(Cl)ccc2OCCn2c(C)nc3cc4c(c(C#N)c3c2=O)C(N(C)C)CC4)c2scc(C(=O)O)c2n1 (stereo not drawn) [compound 612]
- IC50 [2]: < 50 nM
- IC50 [3]: 43.8 nM

SMILES: Cc1nc2cnc(N(C)C3CCN(CCOC(F)(F)F)CC3)c(C#N)c2c(=O)n1CC#Cc1ccc(Cl)cc1-c1ccnc2c(C(=O)O)csc12 [compound 1170]
- IC50 [2]: < 50 nM
- IC50 [3]: 17.1 nM

SMILES: Cc1cc(-c2cc(Cl)ccc2OCCn2c(C)nc3cc4c(c(C#N)c3c2=O)CCC4)c2scc(C(=O)O)c2n1 [compound 748]
- IC50 [2]: < 50 nM
- IC50 [3]: 16.3 nM

SMILES: Cc1nc2cnc(N3CCN(CCOC(F)(F)F)CC3)c(C#N)c2c(=O)n1CC#Cc1ccc(Cl)cc1-c1ccnc2c(C(=O)O)csc12 [compound 1161]
- IC50 [2]: < 50 nM
- IC50 [3]: 19.5 nM

SMILES: Cc1nc2cnc(N3CCC(N4CCC(F)(F)CC4)CC3)c(C#N)c2c(=O)n1CC#Cc1ccc(Cl)cc1-c1ccnc2c(C(=O)O)csc12 [compound 1180]
- IC50 [2]: < 50 nM

SMILES: Cc1nc2cnc(C#CCN(C)C3(C)CC3)c(C#N)c2c(=O)n1CCOc1ccc(Cl)cc1-c1ccnc2c(C(=O)O)csc12 [compound 1346]
- IC50 [1]: 19.7 nM

SMILES: N#Cc1cc2c(=O)n(CCOc3ccc(Cl)cc3-c3cc(C(=O)O)c4ncccc4c3)cnc2cn1 [compound 100]
- IC50 [2]: > 1000 nM
- IC50 [3]: 3480 nM

SMILES: Cc1nc2cc(C(F)(F)F)cc(C#N)c2c(=O)n1CCOc1ccc(Cl)cc1-c1ccnc2c(C(=O)NS(C)(=O)=O)csc12 [compound 569]
- IC50 [2]: < 50 nM
- IC50 [3]: 2 nM

SMILES: Cc1nc2cnc(N3CCN(CC4(F)CC4)CC3)c(C#N)c2c(=O)n1CC#Cc1ccc(Cl)cc1-c1ccnc2c(C(=O)O)csc12 [compound 1167]
- IC50 [2]: < 50 nM
- IC50 [3]: 17.3 nM

SMILES: Cc1cc(-c2cc(Cl)ccc2OCCn2c(C)nc3cc(C(F)(F)F)c(-c4ccccn4)c(C#N)c3c2=O)c2sc(C)c(C(=O)O)c2n1 [compound 421]
- IC50 [2]: < 50 nM

SMILES: Cc1nc2cnc(N(C)C3CCN(CC(C)(F)F)CC3)c(C(N)=O)c2c(=O)n1CC#Cc1ccc(Cl)cc1-c1ccnc2c(C(=O)O)csc12 [compound 1961]
- IC50 [1]: 211 nM

SMILES: Cc1sc2c(-c3cc(Cl)ccc3OCCn3c(C)nc4cc(C(F)(F)F)c(N5CCN(C)CC5)c(C#N)c4c3=O)cc(CF)nc2c1C(=O)O [compound 1237]
- IC50 [2]: < 50 nM
- IC50 [1]: 6.68 nM

SMILES: Cc1nc2cnc(N(C)C3CCN(CC4(C(F)(F)F)CCO4)CC3)c(C#N)c2c(=O)n1CC#Cc1ccc(Cl)cc1-c1ccnc2c(C(=O)O)csc12 (stereo not drawn) [compound 1717]
- IC50 [1]: 13.4 nM

SMILES: Cc1cc(-c2cc(Cl)ccc2OCCn2c(C)nc3c(C)nc(CN(C)C)cc3c2=O)c2scc(C(=O)O)c2n1 [compound 1959]
- IC50 [1]: 46.3 nM

SMILES: Cc1nc2c(C(F)(F)F)ccc(C#N)c2c(=O)n1CCOc1ccc(Cl)cc1-c1ccnc2c(C(=O)O)csc12 [compound 358]
- IC50 [2]: 50 to 1000 nM
- IC50 [3]: 86.3 nM

SMILES: CCN(c1ncc2nc(C)n(CC#Cc3ccc(Cl)cc3-c3ccnc4c(C(=O)NS(=O)(=O)c5ccncc5)csc34)c(=O)c2c1C#N)C1CCN(C2CC(F)(F)C2)CC1 [compound 1838]
- IC50 [1]: 12.3 nM

SMILES: COc1cc(-c2cc(Cl)ccc2OCCn2c(C)nc3cc(C(F)(F)F)cc(C#N)c3c2=O)c2scc(C(=O)O)c2n1 [compound 329]
- IC50 [2]: < 50 nM
- IC50 [3]: 46.4 nM

SMILES: Cc1cc(-c2cc(Cl)ccc2OCCn2c(C)nc3cc(CNC(C)(C)C)c(OC(F)F)c(C#N)c3c2=O)c2scc(C(=O)O)c2n1 [compound 619]
- IC50 [2]: < 50 nM
- IC50 [3]: 6.34 nM

SMILES: Cc1cc(-c2cc(Cl)ccc2OCCn2c(C)nc3cc(C(F)(F)F)c(N4CCN(C)CC4)c(C#N)c3c2=O)cc(C)n1 [compound 835]
- IC50 [2]: < 50 nM
- IC50 [3]: 29.3 nM

SMILES: Cc1nc(N2CCN(CCF)CC2)c(C#N)c2c(=O)n(CCOc3ccc(Cl)cc3-c3ccnc4c(C(=O)O)csc34)c(C)nc12 [compound 1624]
- IC50 [1]: 4.17 nM

SMILES: Cc1nc2cc(C(F)(F)F)cc(C#N)c2c(=O)n1CCOc1ccc(Cl)cc1-c1cc(=O)n(C)c2c(C(=O)O)csc12 [compound 332]
- IC50 [2]: < 50 nM
- IC50 [3]: 37.7 nM

SMILES: Cc1nc2cnc(N3CCC(N4CC(F)C4)CC3)c(C#N)c2c(=O)n1CC#Cc1ccc(Cl)cc1-c1ccnc2c(C(=O)O)csc12 [compound 1564]
- IC50 [1]: 10.6 nM

SMILES: Cc1nc2cc(F)c(OC(F)F)c(C#N)c2c(=O)n1CCOc1ccc(Cl)cc1-c1ccnc2c(C(=O)O)csc12 [compound 545]
- IC50 [2]: < 50 nM
- IC50 [3]: 7.81 nM

SMILES: Cc1nc2cc(C(F)(F)F)cc(C#N)c2c(=O)n1CCOc1ccc(Cl)cc1-c1cc(C2CC2)nc2c(C(=O)O)csc12 [compound 672]
- IC50 [2]: 50 to 1000 nM
- IC50 [3]: 106 nM

SMILES: N#Cc1c(C(F)(F)F)ccc2ncn(CCOc3ccc(Cl)cc3-c3cccc(C(=O)O)c3)c(=O)c12 [compound 133]
- IC50 [2]: 50 to 1000 nM
- IC50 [3]: 66.5 nM

SMILES: CS(=O)(=O)c1cc(C#N)c2c(=O)n(CCOc3ccc(Cl)cc3-c3cccc(C(=O)O)c3)c(CF)nc2c1 [compound 233]
- IC50 [2]: < 50 nM
- IC50 [3]: 28.9 nM

SMILES: Cc1nc2cnc(N(C)C3CCN([C@H]4C[C@H](OC(F)F)C4)CC3)c(C#N)c2c(=O)n1CC#Cc1ccc(Cl)cc1-c1ccnc2c(C(=O)NS(=O)(=O)C3COC3)csc12 [compound 1762]
- IC50 [1]: 25 nM

SMILES: Cc1nc2cnc(N(C)C3CCN(CC(F)(F)F)CC3)c(C#N)c2c(=O)n1CC#Cc1ccc(Cl)cc1-c1ccnc2c(C(=O)NS(=O)(=O)CC(F)F)csc12 [compound 1539]
- IC50 [1]: 12.5 nM

SMILES: Cc1nc2ccc(OC(F)(F)F)c(C#N)c2c(=O)n1CCOc1ccc(Cl)cc1-c1ccnc2c(C(=O)O)csc12 [compound 406]
- IC50 [2]: < 50 nM
- IC50 [3]: 11.4 nM

SMILES: Cc1nc2cc(C(F)(F)F)c3c(c2c(=O)n1CCOc1ccc(Cl)cc1-c1ccnc2c(C(=O)O)csc12)C(=O)OC3 [compound 1972]
- IC50 [1]: 18 nM

SMILES: Cc1nc2cnc(N(C)C3CCN(CC(F)(F)C(F)F)CC3)c(C#N)c2c(=O)n1CC#Cc1ccc(Cl)cc1-c1ccnc2c(C(=O)NS(C)(=O)=O)csc12 [compound 1703]
- IC50 [1]: 6 nM

SMILES: Cc1cncc(-c2c(C(F)(F)F)cc3nc(C)n(CCOc4ccc(Cl)cc4-c4cc(C)nc5c(C(=O)O)csc45)c(=O)c3c2C#N)c1 [compound 775]
- IC50 [2]: < 50 nM
- IC50 [3]: 48.3 nM
